Tests used:
[1] = tested on: eIF2•GTP•Met-tRNAi ternary complex; test: Ternary complex assay (ATF-4 assay), dual luciferase firefly/renilla ratio; type: cell-based, mouse; settings: Mus musculus; for maximal fold induction at 40 µM: read-out: ATF-4 Xmax @ 40 μM; for maximal fold induction at 80 µM / maximal fold induction at 20 µM / maximal fold induction at 10 µM: read-out: ATF-4 Xmax
Text: For assay development, a bi-directional plasmid was designed in which a common promoter/enhancer complex drives the transcription of firefly luciferase (F-luc) ORF fused to the 5′ untranslated region (UTR) of ATF-4, and of the renilla luciferase (R-luc) ORF fused to a 90-nucleotide 5′ UTR derived from the plasmid (FIG. 6A). Because the tetracycline-regulated transactivator ((tTA), required for driving transcription from this vector) is not normally expressed in the mammalian cells, stable KLN cancer cells were constructed that expressed tTA (KLN-tTA).
The KLN-tTA colonies that drove expression of reporter genes from pBISA-DL plasmid were selected by transient transfection and dual luciferase assay. One of these KLN-tTA cell lines was transfected with the pBISA-DL^(ATF-4) expression vector, stable colonies were selected by dual luciferase assay and expanded.
Plasmids and Ternary Complex Assay
(ATF-4 Assay). Briefly, bi-directional mammalian expression vector pBI (Clontech, CA) was modified to expand the multiple cloning sites (MCSs) and designated thereafter as pBISA. This vector contains seven copies of the tetracycline-regulated transactivator response element (TRE), which together act as core promoter/enhancer. The TRE is flanked on both sides by minimal human cytomegalovirus (CMV) minimal promoters allowing bi-directional transcription and two MCSs. Firefly and renilla luciferases were subcloned into MCS-I and MCS-II, respectively. This plasmid, designated pBISA-DL, transcribes two mRNAs that contain the 90 nucleotide plasmid derived 5′UTR (same sequence in both mRNAs), and the ORF encoding either firefly or renilla luciferase followed by a polyadenylation sequence as described in Ziegeler, G.; Ming, J.; Koseki, J. C.; Sevinc, S.; Chen, T.; Ergun, S.; Qin, X.; Aktas, B. H. J. Biol. Chem. 2010, 285, 15408 hereby incorporated by reference. This plasmid was further modified by inserting the 5′UTR of ATF-4 into MCS-I in front of the firefly luciferase mRNA. Transcription from this direction generates an mRNA that contains the firefly luciferase ORF preceded by a 5′UTR composed of 90 nucleotides derived from the plasmid and 267 nucleotides derived from the 5′UTR of ATF-4 mRNA. Transcription from the other direction generates an mRNA that contains the renilla luciferase ORF proceeded only by the 90-nucleotide plasmid-derived sequence in the 5′UTR. This expression plasmid is called pBISA-DL(ATF-4). In the dual luciferase assay, cells expressing firefly and renilla luciferases were lysed and the extracts assayed with a Dual-Glo Luciferase assay kit, per manufacturer's instruction (Promega Inc., Madison, Wis.). The data calculations were carried out as the ratio of firefly to renilla luciferase signal as described in Chen, T.; Ozel, D.; Qiao, Y.; Harbinski, F.; Chen, L.; Denoyelle, S.; He, X.; Zvereva, N.; Supko, J. G.; Chorev, M.; Halperin, J. A.; Aktas, B. H. Nat. Chem. Biol. 2011, 7, 610 hereby incorporated by reference.

CRL-2813 = test: Cell growth assay (sulforhodamine B), CRL-2813 cells; type: cell-based, human; settings: Homo sapiens, CRL2813, 120 h, 5 days, SRB
Method: (§1) Adherent mouse (KLN) and human solid tumor cells (CRL-2351, and CRL-2813) were plated in 96-well plates and maintained for 5 days in the presence of 0.54 to 6 μM of individual compound, and cell proliferation was measured by the sulforhodamine B (SRB) assay as described in ref. 11: briefly, cells were fixed in 10% cold trichloroacetic acid at 4° C. for 1 h, extensively washed with double-distilled H2O and air-dried. Plates were then incubated with 0.4% SRB in 1% acetic acid for 1 h, washed with 1% acetic acid to remove the unbound dye, and air-dried. The bound dye was solubilized by addition of 10 mM Tris (pH 10), and the absorbance was determined in a Titertek Multiscan plate reader at 490 nm. The data calculations were carried out as described (the values for mean±SD of data from replicate wells are calculated): data are expressed in terms of % T/C [(OD of treated cells/OD of control cells)×100], as a measure of cell viability and survival in the presence of test materials. Calculations are also made for the concentration of test agents giving a T/C value of 50%, or 50% growth inhibition (IC50). With the SRB assay, a measure is made of the cell population density at time 0 (the time at which drugs are added) from two extra reference plates of inoculated cells fixed with TCA just prior to drug addition to the test plates. Thus, we have three measurements: control optical density (C), test optical density (T), and optical density at time zero (T0). The calculation is 100×[(T−T0)/(C−T0)]. If T is less than T0, cell killing has occurred and can be calculated from 100×[(T−T0)/T0]. Thus, for each drug-cell line combination, a dose-response curve is generated and three levels of effect are calculated.

CRL-2351 = test: Cell growth assay (sulforhodamine B), CRL-2351 cells; type: cell-based, human; settings: Homo sapiens, 120 h, 5 days, SRB
Method: as §1

KLN = test: Cell growth assay (sulforhodamine B), KLN cells; type: cell-based, mouse; settings: Mus musculus, 120 h, 5 days, SRB
Method: as §1, with “Adherent mouse (KLN) and human solid tumor cells (CRL-2351, and CRL-2813) were plated in 96-well plates and maintained for 5 days in the presence of 0.54 to 6 μM of individual compound, and cell proliferation was measured by the sulforhodamine B (SRB) assay as described in ref. 11: briefly, cells were fixed in 10% cold trichloroacetic acid at 4° C. for 1 h, extensively washed with double-distilled H2O and air-dried.” left out

Row | Compound | maximal fold induction at 40 µM [1] | IC50 (CRL-2813) [µM] | IC50 (CRL-2351) [µM] | IC50 (KLN) [µM] | maximal fold induction at 80 µM [1] | maximal fold induction at 20 µM [1] | maximal fold induction at 10 µM [1]
1 | CC(C)(C)c1ccc(O)c(C2(c3cc(C(C)(C)C)ccc3O)C(=O)Nc3c2ccc(F)c3F)c1 [HY036, 3,3-Bis(5-tert-Butyl-2-Hydroxyphenyl)-6,7-Difluoroindolin-2-One] | 4.45 ± 1.07 | 2.7 ± 0.1 | 2.4 ± 0.6 | 11.2 ± 3.2 | – | – | –
2 | CC(C)(C)c1ccc(OCCN2CCCCC2)c(C2(c3cc(C(C)(C)C)ccc3OCCN3CCCCC3)C(=O)Nc3ccccc32)c1 [HY172] | – | 11.6 ± 1.4 | 2.14 ± 1.28 | 1.3 ± 0.3 | 5.91 ± 0.52 | – | –
3 | COc1ccc(C2(c3cc(C(C)(C)C)ccc3O)C(=O)Nc3ccccc32)cc1 (stereo not shown) [Sd086] | 5.6 ± 0.5 | 2.75 ± 0.1 | 2.65 ± 0.1 | 15.7 ± 1.1 | – | – | –
4 | CC(C)(C)c1ccc(OCCN2CCNCC2)c(C2(c3ccccc3)C(=O)Nc3ccccc32)c1 (stereo not shown) [Sd049, 33-{5-tert-butyl-2-[2-(piperazin-1-yl)ethoxy]phenyl}-3-phenylindol-2-one] | – | 12.8 ± 0.8 | 0.9 ± 0.1 | 1.2 ± 0.3 | – | 2.1 ± 0.65 | –
5 | COc1ccc(OC)c(C2(c3cc(O)ccc3OC)C(=O)Nc3ccccc32)c1 (stereo not shown) [HY055] | – | 9.7 ± 2 | 9 | 15.6 ± 0.4 | 1.2 ± 0.6 | – | –
6 | CC(C)(C)c1ccc(OCC(=O)O)c(C2(c3ccccc3)C(=O)Nc3ccccc32)c1 (stereo not shown) [Sd177] | – | > 20 | > 20 | > 20 | 1.65 ± 0.04 | – | –
7 | CN(C)CCOc1ccc(C(C)(C)C)cc1C1(c2ccccc2)C(=O)Nc2ccccc21 (stereo not shown) [Sd028, 3-(5-tert-Butyl-2-(2-(dimethylamino)ethoxy)phenyl)-3-phenylindolin-2-one] | – | 2.4 ± 0.4 | 1.4 ± 0.3 | 1.2 ± 0.3 | – | – | 2.69 ± 0.36
8 | CC(C)(C)c1ccc(O)c(C2(c3cc(C(C)(C)C)ccc3OCCN3CCCCC3)C(=O)Nc3ccccc32)c1 (stereo not shown) [HY072] | – | 3.35 ± 0.5 | 0.7 ± 0.1 | 2.9 ± 0.4 | – | 4.15 ± 0.5 | –
9 | CN1CCN(CCOc2ccc(C(C)(C)C)cc2C2(c3cc(C(C)(C)C)ccc3OCCN3CCN(C)CC3)C(=O)Nc3ccccc32)CC1 [HY413] | – | 0.74 ± 0.01 | 0.2 ± 0.08 | 0.85 ± 0.02 | – | – | 9.7 ± 3.8
10 | C#CCOc1ccc(C(C)(C)C)cc1C1(c2ccccc2)C(=O)Nc2ccccc21 (stereo not shown) [Sd123, 3-[5-tert-butyl-2-(prop-2-yn-1-yloxy)phenyl]-3-phenylindol-2-one] | – | > 20 | 17.5 ± 2 | > 20 | 5.1 ± 1.65 | – | –
11 | COc1ccc(C2(c3cc(C(C)(C)C)ccc3OCCN3CCOCC3)C(=O)Nc3ccc(I)cc32)cc1 (stereo not shown) [Sd204, 3-{5-tert-butyl-2-[2-(morpholin-4-yl)ethoxy]phenyl}-5-iodo-3-(4-methoxyphenyl)indol-2-one] | 4.5 ± 0.93 | 2.6 ± 0.4 | 6.1 ± 1.7 | 12 ± 1.2 | – | – | –
12 | O=C1Nc2ccccc2C1(c1cc(C2CCCC2)ccc1OCCO)c1cc(C2CCCC2)ccc1OCCO [HY058] | – | 1.3 ± 0.4 | 2.4 ± 0.1 | 15.2 ± 1.1 | – | 3.35 ± 0.74 | –
13 | CC(C)(C)c1ccc(C2(c3cc(C(C)(C)C)ccc3O)C(=O)Nc3ccccc32)c(OCCO)c1 (stereo not shown) [HY069] | 10.7 ± 1 | 2.9 ± 0.3 | 8.8 ± 0.9 | > 20 | – | – | –
14 | COc1ccc(C2(c3cc(C(C)(C)C)ccc3OCCN3CCOCC3)C(=O)Nc3ccccc32)cc1F (stereo not shown) [Sd205] | – | 2.7 ± 0.4 | 2.5 ± 0.6 | 3.4 ± 1.2 | 5.2 ± 2.1 | – | –
15 | CC(C)(C)c1cccc(C2(c3cc(C(C)(C)C)ccc3O)C(=O)N(CCBr)c3ccccc32)c1 (stereo not shown) [HY283] | 9.6 ± 0.16 | 1.4 ± 0.4 | 1.5 ± 0.7 | > 20 | – | – | –
16 | CCCN1C(=O)C(c2cc(C(C)(C)C)ccc2O)(c2cc(C(C)(C)C)ccc2OCCN2CCCC2)c2ccccc21 (stereo not shown) [HY098] | – | 0.9 ± 0.2 | 0.3 ± 0.1 | 0.5 ± 0.2 | – | – | 8.7 ± 1.2
17 | CC(C)(C)c1ccc(O)c(C2(c3cccnc3)C(=O)Nc3ccccc32)c1 (stereo not shown) [HY003, 3-(5-tert-Butyl-2-Hydroxyphenyl)-3-(Pyridin-3-yl)Indolin-2-One] | – | 11.5 ± 1.8 | 6.4 ± 3 | > 20 | 1.67 | – | –
18 | CN(C)c1ccc(C2(c3cc(C(C)(C)C)ccc3OCCN3CCOCC3)C(=O)Nc3ccccc32)cc1 (stereo not shown) [Sd154, 3-{5-tert-butyl-2-[2-(morpholin-4-yl)ethoxy]phenyl}-3-[4-(dimethylamino)phenyl]-indol-2-one] | 7.15 ± 0.49 | 7.5 ± 1 | 4.7 ± 0.3 | 2.2 ± 0.6 | – | – | –
19 | CC(C)(C)c1ccc(O)c(C2(c3ccccc3)C(=O)Nc3ccc(I)cc32)c1 (stereo not shown) [Sd223] | 7.2 ± 1.2 | 2.8 ± 0.2 | 3.5 | 14.9 ± 3.8 | – | – | –
20 | CC(C)(C)c1ccc(O)c(C2(c3ccc(O)cc3)C(=O)Nc3c2ccc(F)c3F)c1 (stereo not shown) [Sd141] | 2.9 ± 0.6 | 10.7 ± 3.9 | > 20 | 15.3 ± 1.9 | – | – | –
21 | CC(C)(C)c1ccc(OCCO)c(C2(c3cc(C(C)(C)C)ccc3OCCO)C(=O)Nc3ccccc32)c1 [HY169] | – | 2.9 ± 0.1 | 2.7 ± 0.3 | 11 ± 2.4 | – | 3.4 ± 0.1 | –
22 | CN(C)c1ccc(C2(c3cc(C(C)(C)C)ccc3OCCN3CCOCC3)C(=O)Nc3c2ccc(F)c3F)cc1 (stereo not shown) [Sd163] | – | 11 ± 1.3 | 4 ± 1 | 15.7 ± 1.9 | 5.1 ± 0.1 | – | –
